Experimental data reported in ChEMBL document CHEMBL1201862, “PubChem BioAssay data set” (2004).
The source made the active and inactive calls.

Tests used:
[1] = target: T1, Ubiquitin-conjugating enzyme E2 N (Homo sapiens, UniProt P61088); format: functional;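 further: Dose-response confirmation in a TR-FRET assay detecting UBC13-driven polyubiquitin chain formation, inhibition measured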
T1 sequence (P61088 whole entry): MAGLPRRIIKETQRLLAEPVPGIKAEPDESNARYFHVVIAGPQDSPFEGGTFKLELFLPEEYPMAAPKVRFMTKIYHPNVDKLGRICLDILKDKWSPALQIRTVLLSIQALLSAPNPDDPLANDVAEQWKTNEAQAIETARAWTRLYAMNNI

cells [2] = format: functional, cell-based
cells [3] = format: functional, cell-based; remark: listed apart in the source
[4] = target: Heat shock protein HSP 90-alpha (Homo sapiens, UniProt P07900); format: functional, organism-based
Cytochrome P450 2C19 = Cytochrome P450 2C19 (Homo sapiens, UniProt P33261); test: Cytochrome panel assay with activity outcomes. Panel member name: p450-cyp2c19 Compounds with AC50 equal or less than 10 uM are considered active; format: functional; settings: read-out: AC50
Sequence of Cytochrome P450 2C19 (P33261 whole entry): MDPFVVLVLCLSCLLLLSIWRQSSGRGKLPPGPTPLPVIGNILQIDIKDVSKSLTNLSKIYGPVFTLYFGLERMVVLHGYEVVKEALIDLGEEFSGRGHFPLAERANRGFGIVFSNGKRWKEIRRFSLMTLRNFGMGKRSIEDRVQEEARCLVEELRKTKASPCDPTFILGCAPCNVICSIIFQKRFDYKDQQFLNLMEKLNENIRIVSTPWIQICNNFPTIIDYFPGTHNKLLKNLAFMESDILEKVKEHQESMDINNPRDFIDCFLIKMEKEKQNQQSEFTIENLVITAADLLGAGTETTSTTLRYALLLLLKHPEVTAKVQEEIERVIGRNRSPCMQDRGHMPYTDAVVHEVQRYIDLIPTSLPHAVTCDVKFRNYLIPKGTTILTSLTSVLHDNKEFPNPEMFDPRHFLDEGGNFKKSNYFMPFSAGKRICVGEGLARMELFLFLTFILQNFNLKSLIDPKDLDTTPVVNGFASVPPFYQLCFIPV

Cytochrome P450 2C9 = Cytochrome P450 2C9 (Homo sapiens, UniProt P11712)
Sequence of Cytochrome P450 2C9 (P11712 whole entry): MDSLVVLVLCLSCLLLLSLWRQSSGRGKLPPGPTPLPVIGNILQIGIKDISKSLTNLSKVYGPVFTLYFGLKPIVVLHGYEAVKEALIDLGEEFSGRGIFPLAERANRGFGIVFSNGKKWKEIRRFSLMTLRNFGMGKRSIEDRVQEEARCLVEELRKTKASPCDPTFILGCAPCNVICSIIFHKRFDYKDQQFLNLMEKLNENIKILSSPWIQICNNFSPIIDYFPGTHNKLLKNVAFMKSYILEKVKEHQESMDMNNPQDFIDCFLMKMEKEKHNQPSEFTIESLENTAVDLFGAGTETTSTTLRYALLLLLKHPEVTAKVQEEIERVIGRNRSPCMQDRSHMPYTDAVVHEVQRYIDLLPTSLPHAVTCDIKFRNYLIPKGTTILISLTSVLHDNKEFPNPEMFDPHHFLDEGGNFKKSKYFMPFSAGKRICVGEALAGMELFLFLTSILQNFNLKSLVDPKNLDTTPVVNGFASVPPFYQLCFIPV

[5] = Luminescence Cell-Based Dose Retest to Confirm Inhibitors of Cancer Stem Cells. [Related pubchem assays (depositor defined):AID2717, AID2721]; format: functional; settings: Homo sapiens
INS1 = test: INS-1E survival protection against cytokine death – cell-based, luminescence, retest, dose response (AID 449756); format: functional; settings: Rattus norvegicus;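 further: cell death triggered by IL-1 beta plus TNF-alpha plus IFN-gamma mixture; protective hits raise ATP signal compared with cytokine alone wells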
Cytochrome P450 3A4 = Cytochrome P450 3A4 (Homo sapiens, UniProt P08684);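 further: CYP3A4 tested as one member of a cytochrome P450 panel screen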
Sequence of Cytochrome P450 3A4 (P08684 whole entry): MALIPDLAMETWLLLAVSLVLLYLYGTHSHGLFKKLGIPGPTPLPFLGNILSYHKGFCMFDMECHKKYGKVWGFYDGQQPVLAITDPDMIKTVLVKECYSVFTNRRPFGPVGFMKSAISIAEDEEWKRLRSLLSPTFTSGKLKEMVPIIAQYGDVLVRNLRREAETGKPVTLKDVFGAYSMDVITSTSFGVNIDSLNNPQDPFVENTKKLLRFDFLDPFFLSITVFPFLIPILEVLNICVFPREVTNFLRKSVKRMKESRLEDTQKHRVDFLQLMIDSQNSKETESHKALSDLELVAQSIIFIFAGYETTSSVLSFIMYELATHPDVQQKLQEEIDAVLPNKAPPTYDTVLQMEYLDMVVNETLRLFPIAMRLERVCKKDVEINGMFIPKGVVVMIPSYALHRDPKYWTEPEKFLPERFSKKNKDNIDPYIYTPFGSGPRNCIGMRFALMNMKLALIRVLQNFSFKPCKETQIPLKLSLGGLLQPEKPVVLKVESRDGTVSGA

Cytochrome P450 2D6 = Cytochrome P450 2D6 (Homo sapiens, UniProt P10635);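 further: CYP2D6 member of a cytochrome P450 panel assay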
Sequence of Cytochrome P450 2D6 (P10635 whole entry): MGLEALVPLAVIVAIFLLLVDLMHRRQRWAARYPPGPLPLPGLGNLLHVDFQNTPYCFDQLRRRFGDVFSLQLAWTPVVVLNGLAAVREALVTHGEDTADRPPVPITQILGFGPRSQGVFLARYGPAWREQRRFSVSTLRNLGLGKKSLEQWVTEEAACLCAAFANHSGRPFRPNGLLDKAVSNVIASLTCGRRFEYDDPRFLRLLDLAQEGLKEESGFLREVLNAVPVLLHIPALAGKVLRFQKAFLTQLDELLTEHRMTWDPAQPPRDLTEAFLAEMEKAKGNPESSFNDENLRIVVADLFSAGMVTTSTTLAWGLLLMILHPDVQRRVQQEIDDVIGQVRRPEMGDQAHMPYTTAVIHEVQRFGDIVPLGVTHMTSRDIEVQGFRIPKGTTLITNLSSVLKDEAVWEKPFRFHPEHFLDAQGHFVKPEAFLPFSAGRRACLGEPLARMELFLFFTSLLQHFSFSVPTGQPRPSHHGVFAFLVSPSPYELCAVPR

[6] = viability of PTEN-deleted HCT116 cells – cell-based, HCT116 PTEN knockout, dose response (AID 1047); format: functional;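 further: HCT116 colon tumor cells with PTEN knocked out; cells exposed to compound for 60 hours before readout; potency for loss of cell viability measured by luminescence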
[7] = viability of HCT116 lacking mutant beta-catenin – cell-based, human colon tumor, dose response (AID 1045); format: functional;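 further: HCT116 colon tumor cells with beta catenin knocked out; cells exposed to compound for 60 hours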
[8] = NIH3T3 cell viability loss – ATP luminescence, mouse fibroblasts, counter-screen, dose response (AID 2010); format: functional, cell-based;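 further: cells exposed to compound for about 90 hours before reading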
[9] = fluconazole-exposed Candida albicans growth modulators – fluorescence, retest, confirmation (AID 2467); format: functional, cell-based
[10] = NIH-3T3 fibroblast cytotoxicity, dose response, cytotoxicity control, cell-based, fluorescence, Alamar Blue, secondary assay (AID 2327); format: functional;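 further: NIH-3T3 mouse fibroblasts cultured with fluconazole at 8 µg/mL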
[11] = Trypanosoma cruzi growth suppression in host cells – NIH3T3 host cells, beta-gal luminescence, confirmation (AID 2044); format: functional, cell-based;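 further: intracellular parasites grown in NIH/3T3 mouse fibroblasts as host cells; luminescent beta-galactosidase reporter signal from transgenic T. cruzi replicating inside host cells; inhibitors lower the luminescence signal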
Cytochrome P450 1A2 = target: T2, Cytochrome P450 1A2 (Homo sapiens, UniProt P05177);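 further: PubChem cytochrome P450 panel assay, CYP1A2 panel member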
T2 sequence (P05177 whole entry): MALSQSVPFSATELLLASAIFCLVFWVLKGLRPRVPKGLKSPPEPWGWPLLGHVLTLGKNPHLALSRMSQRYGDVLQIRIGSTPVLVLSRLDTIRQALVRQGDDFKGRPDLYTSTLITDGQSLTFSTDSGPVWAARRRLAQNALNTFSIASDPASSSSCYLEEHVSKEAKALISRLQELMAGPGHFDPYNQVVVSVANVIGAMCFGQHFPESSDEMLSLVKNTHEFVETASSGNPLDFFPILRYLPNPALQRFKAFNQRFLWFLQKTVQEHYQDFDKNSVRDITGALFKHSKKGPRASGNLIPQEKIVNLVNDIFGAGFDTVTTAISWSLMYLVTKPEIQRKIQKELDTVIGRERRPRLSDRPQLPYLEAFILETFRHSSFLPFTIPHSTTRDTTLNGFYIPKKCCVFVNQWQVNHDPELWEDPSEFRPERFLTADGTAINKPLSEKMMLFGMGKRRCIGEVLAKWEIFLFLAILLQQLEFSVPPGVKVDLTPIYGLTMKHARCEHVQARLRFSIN

Protein RecA = target: T3, Protein RecA (Mycobacterium tuberculosis, UniProt P9WHJ3); test: Fluorescence Cell-Free Homogeneous Dose Retest to Identify Inhibitors of RecA-Intein Splicing Activity. [Related pubchem assays (depositor defined):AID2097, AID2223, AID489010, AID492950]; format: functional
T3 sequence (P9WHJ3 whole entry): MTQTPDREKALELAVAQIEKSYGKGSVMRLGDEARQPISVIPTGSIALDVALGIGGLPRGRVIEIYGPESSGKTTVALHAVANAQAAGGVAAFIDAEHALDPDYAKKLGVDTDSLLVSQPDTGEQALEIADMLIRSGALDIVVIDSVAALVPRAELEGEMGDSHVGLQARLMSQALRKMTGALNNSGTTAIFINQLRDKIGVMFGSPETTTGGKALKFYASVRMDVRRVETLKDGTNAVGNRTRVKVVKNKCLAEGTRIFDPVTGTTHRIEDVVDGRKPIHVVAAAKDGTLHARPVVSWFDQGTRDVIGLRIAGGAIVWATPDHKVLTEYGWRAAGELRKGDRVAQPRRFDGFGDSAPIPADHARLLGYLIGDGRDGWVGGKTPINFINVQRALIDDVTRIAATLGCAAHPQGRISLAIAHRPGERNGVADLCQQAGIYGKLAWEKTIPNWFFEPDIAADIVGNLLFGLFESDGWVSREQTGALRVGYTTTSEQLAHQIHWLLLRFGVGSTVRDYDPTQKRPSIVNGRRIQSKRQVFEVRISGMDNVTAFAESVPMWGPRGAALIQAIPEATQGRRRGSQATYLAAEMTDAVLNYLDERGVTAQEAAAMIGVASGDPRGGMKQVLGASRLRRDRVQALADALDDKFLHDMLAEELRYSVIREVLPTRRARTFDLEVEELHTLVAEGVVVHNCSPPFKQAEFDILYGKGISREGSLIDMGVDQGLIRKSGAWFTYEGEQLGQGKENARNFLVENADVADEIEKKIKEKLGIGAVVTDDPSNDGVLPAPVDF

[12] = target: T4, Heat shock factor protein 1 (Mus musculus, UniProt P38532); test: enhancement of HSF1-driven luciferase signal – cell-based, NIH3T3, luminescence, dose retest, confirmation (AID 435004); format: functional;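 further: stress induced by proteasome inhibitor MG132 added 30 min after compound; luciferase reporter driven by HSF1 response element in NIH3T3 cells; actives raise luminescence as potentiators of the MG132 stress response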
T4 sequence (P38532 whole entry): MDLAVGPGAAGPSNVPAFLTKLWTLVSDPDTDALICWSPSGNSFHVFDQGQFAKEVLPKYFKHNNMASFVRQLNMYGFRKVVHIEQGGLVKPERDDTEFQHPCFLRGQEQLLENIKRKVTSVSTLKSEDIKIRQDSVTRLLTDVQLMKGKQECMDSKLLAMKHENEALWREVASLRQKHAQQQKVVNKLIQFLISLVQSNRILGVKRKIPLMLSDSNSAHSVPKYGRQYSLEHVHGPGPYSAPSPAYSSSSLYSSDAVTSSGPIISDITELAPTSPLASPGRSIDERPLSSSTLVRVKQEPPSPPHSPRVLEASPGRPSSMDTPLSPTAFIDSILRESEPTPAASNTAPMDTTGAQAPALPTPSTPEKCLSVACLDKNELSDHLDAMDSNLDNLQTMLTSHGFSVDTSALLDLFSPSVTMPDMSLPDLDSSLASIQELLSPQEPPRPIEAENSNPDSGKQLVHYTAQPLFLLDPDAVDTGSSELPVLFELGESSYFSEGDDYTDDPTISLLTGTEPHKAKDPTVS

[13] = target: T5, Replicative DNA helicase DnaB (Mycobacterium tuberculosis, UniProt P9WMR3); test: DnaB intein splicing inhibitors, dose response, biochemical, cell-free fluorescence (AID 449749); format: functional
T5 sequence (P9WMR3 whole entry): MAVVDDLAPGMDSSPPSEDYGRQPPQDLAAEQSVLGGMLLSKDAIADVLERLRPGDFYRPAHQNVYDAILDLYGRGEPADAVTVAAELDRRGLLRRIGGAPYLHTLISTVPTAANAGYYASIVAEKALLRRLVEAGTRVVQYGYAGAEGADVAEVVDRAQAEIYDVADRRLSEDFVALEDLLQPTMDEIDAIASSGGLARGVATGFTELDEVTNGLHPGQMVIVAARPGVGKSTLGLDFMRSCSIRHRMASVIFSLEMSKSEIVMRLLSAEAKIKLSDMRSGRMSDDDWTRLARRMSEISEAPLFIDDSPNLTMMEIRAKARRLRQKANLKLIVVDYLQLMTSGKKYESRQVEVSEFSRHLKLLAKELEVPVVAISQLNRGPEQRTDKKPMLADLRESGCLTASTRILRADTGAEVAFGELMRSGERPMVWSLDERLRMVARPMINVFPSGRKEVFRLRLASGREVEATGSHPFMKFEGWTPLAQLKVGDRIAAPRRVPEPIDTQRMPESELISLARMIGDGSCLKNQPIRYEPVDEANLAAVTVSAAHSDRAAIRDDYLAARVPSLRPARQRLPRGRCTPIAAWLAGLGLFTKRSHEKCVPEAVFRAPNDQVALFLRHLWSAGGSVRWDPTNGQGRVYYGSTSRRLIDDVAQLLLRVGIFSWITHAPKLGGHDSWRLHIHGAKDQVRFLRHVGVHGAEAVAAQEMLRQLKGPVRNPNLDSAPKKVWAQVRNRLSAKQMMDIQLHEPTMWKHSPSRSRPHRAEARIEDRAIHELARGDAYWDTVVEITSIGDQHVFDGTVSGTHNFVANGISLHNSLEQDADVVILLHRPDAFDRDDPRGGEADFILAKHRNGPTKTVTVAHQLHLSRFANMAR

NC(S)=Nc1nc2ccccc2nc1O
IC50 [1]: > 20 µM (inactive)

CC(=O)Nc1cc2c(cc1Br)OCCO2
EC50 (cells [2]): > 350 µM (not active)
EC50 (cells [3]): > 350 µM (not active)

CCOc1ccc(C(=O)NC(=S)Nc2cccc(NC(=O)c3ccco3)c2)cc1[N+](=O)[O-]
EC50 (cells [2]): > 350 µM (not active)
EC50 (cells [3]): > 350 µM (not active)

O=S(=O)(NC1CC2CCC1C2)c1ccc(Cl)cc1 (stereo not given)
AC50 [4]: 0.538 µM (active)

CN(C)S(=O)(=O)c1ccc(NC(=O)c2cc(F)c(F)cc2Cl)cc1
AC50 (Cytochrome P450 2C19): 17.8 µM (inconclusive)
AC50 (Cytochrome P450 2C9): inconclusive

COc1ccc(CCNc2ccc(C(CC(N)=O)NC(=O)c3ccc(Br)cc3)cc2[N+](=O)[O-])cc1 (stereo not given)
AC50 [5]: 5.51 µM (active)
AC50 (INS1): 12.9 µM (active)

COc1ccccc1CN1C(=O)c2ccncc2C1=O
AC50 (Cytochrome P450 3A4): 11.2 µM (inconclusive)
AC50 (Cytochrome P450 2C9): inconclusive

O=C(O)/C=C/c1cnn(-c2ccccc2)c1
EC50 (cells [2]): 2.39 µM (active)
EC50 (cells [3]): > 350 µM (not active)

Cc1ccc(OCCCOc2cccc3cccnc23)cc1C
AC50 (Cytochrome P450 3A4): 28.2 µM (inconclusive)
AC50 (Cytochrome P450 2D6): 17.8 µM (inconclusive)
AC50 (Cytochrome P450 2C9): inconclusive

COC(=O)c1ccccc1S(=O)(=O)N1CCC(C(=O)N2CCC2)CC1
IC50 [1]: > 20 µM (inactive)

CN(C)C(=O)CSc1nc2ccccc2n1Cc1ccccc1
EC50 (cells [2]): > 350 µM (not active)
EC50 (cells [3]): > 350 µM (not active)

C=C(C(=O)c1ccccc1)C(C)CC(=O)c1ccccc1 (stereo not given)
EC50 [6]: 5.17 µM (active)
EC50 [7]: 4.74 µM (active)

O=C(Nc1nc(-c2ccccn2)cs1)c1cc2ccccc2o1
EC50 [8]: 9.05 µM (active)
AC50 [4]: 4.49 µM (active)
EC50 [9]: 1.49 µM (active)
EC50 [10]: 20.5 µM (active)
EC50 [11]: 1.46 µM (active)

O=C(C[S+]([O-])c1cccc(C(F)(F)F)c1)Nc1ccccc1Cl (stereo not given)
AC50 (Cytochrome P450 1A2): 15.8 µM (inconclusive)
AC50 (Cytochrome P450 2C9): inconclusive

COc1ccc2[nH]c(-c3cccc(N)c3)nc2c1
EC50 (cells [2]): 6.92 µM (active)
EC50 (cells [3]): > 350 µM (not active)

CC(C(=O)NC1CCCC1)N(C(=O)c1snc(C(N)=O)c1N)c1ccc2c(c1)OCCO2 (stereo not given)
IC50 [1]: > 20 µM (inactive)

CC(C)OCCCN=C(S)N1CCC(C(=O)c2ccc(Cl)cc2)CC1
AC50 (INS1): 36.9 µM (active)

Cc1cccc(NS(=O)(=O)c2ccc3c(c2)Cc2cc(S(=O)(=O)Nc4cccc(C)c4C)ccc2-3)c1C
EC50 [6]: 11 µM (active)
EC50 [7]: 10.2 µM (active)

Cc1cc(C(=O)c2ccc(C(C)(C)C)cc2)c(NC(=O)CCl)s1
EC50 (Protein RecA): 2.97 µM (active)
EC50 [12]: 7.73 µM (active)
EC50 [6]: 9.12 µM (active)
EC50 [7]: 8.47 µM (active)
AC50 [13]: 7.58 µM (active)

COc1ccc(C)c2sc(N(CCCN(C)C)C(=O)c3ccc(S(=O)(=O)N(C)C)cc3)nc12
IC50 [1]: > 20 µM (inactive)

O=C(N/N=C\c1ccc2c(c1)CCC2)c1ccccc1O
AC50 (Cytochrome P450 2C19): 0.251 µM (inconclusive)
AC50 (Cytochrome P450 2D6): 5.01 µM (inconclusive)
AC50 (Cytochrome P450 2C9): inconclusive

CC[C@@H](C)[C@@H]1CN([C@@H](C)CN2CCC[C@H]2CN2C(N)=NC[C@@H]2Cc2ccccc2)C(=N)N1CCc1ccc(Cl)c(Cl)c1
IC50 [1]: > 20 µM (inactive)

CCOCCCNC(=O)C1CCN(S(=O)(=O)N2CC(C)CC(C)C2)CC1 (stereo not given)
AC50 (Cytochrome P450 3A4): 15.8 µM (inconclusive)
AC50 (Cytochrome P450 2C9): inconclusive

COC(=O)c1cc(=O)n(CCc2ccccc2F)/c(=N/c2ccc(F)c(Cl)c2)s1
AC50 (INS1): 8.13 µM (active)

COc1ccc2c(c1[N+](=O)[O-])CCC/C2=N/OC(=O)c1ccccc1SC
AC50 (Cytochrome P450 3A4): 15.8 µM (inconclusive)
AC50 (Cytochrome P450 2C9): inconclusive
